# Measured values: patent US9670139B2, “Telomerase activating compounds and methods of use thereof” (BEN-GURION UNIVERSITY OF THE NEGEV RESEARCH AND DEVELOPMENT …, priority 2007, dated 2017)
# Numbered stars: 1 amine (or outer) side, 2 acyl side, 3 side chain; on linkers, the order of the positions; unused ones are H or OH. Bridge positions count the residues as written; N and C are the ends. Square brackets hold non-standard residues; d marks the D form. Peptide text beside a SMILES is read from it. I, II: the chains in the order shown. Actinocin(9to1) = Cc1c2oc3c(C)ccc(C(=O)[*:1])c3nc-2c(C(=O)[*:2])c(N)c1=O; NMeV = CN[C@H](C(=O)O)C(C)C; Sar = CNCC(=O)O
# Assays:
# C. elegans = assay: Lifespan extension of nematodes (C. elegans); type: in vivo; conditions: for Lifespan % / Lifespan extension (%): 50 micromolar; for Lifespan % / Lifes pan ext. %: mean lifespan versus control; for Lifes pan ext. %: nematodes grown with compound at 50 micromolar; for Lifespan extension (%): Table 2, versus untreated controls
# Experimental: Nematodes (C. elegans) were administered tri-phenyl telomerase-activating compounds presented in the following tables, and telomerase activity and/or expression was measured in terms of nematode lifespan extension. Nematodes were grown with the activators at 50 micromolar concentration, and the mean, maximum and half-life for Compound 68 and Compound 77, two representative molecules, was measured versus that of the control (FIG. 8). Values represent mean lifespan.
# Survival of the C. elegans, a nematode that normally survives for 12-14 days, represents an acceptable model for studying life extension. Nematodes were administered tri-phenyl telomerase-activating compounds and their effect on the nematode lifespan extension was determined. Nematodes were grown with the activators at a concentration of 50 micromolar, and mean, maximum and half-life were measured in comparison with untreated controls. Lifespan increased by 13-43% (Table 2), and the median lifespan increased approximately 2-fold (from 12 days to 22 days, as shown in FIG. 8).
# [1] = Solubility noted at synthesis; type: physicochemical
# telomerase mRNA = assay: Northern blot of telomerase mRNA with hTERT probe; type: cell-based, human
# Experimental: Experiments were also performed to determine the effect of compounds of the present invention on the telomerase mRNA level (including the full and spliced variant telo-mRNAs). Cells were treated with a single dose of […] Compound 68 for various intervals (1-24 h). Total RNA extracts were prepared, and equal RNA concentrations were analyzed by northern blotting with a specific hTERT probe. […] The increased expression of telomerase was specific since no effect on GAPDH mRNA was observed (lower panel).
# embryos = assay: Prevention of camptothecin damage to embryo development in rats; type: in vivo, rat; conditions: embryos at days 14-15
# Experimental: The ability of compounds of the present invention to prevent the damaging effects of drugs on embryonic development was examined in rats. Female rats were treated with camptothecin (CPT) (5 mg/kg), an anti-cancer drug, and then injected with Compound 68 (6 mg/kg) or vehicle (0.1%). Embryos were removed at days 14-15 of pregnancy and examined for damage.
# telomerase [2] = assay: Activation of telomerase expression in rat endometrial cells after subcutaneous injection; type: in vivo; conditions: 6 mg/kg subcutaneously, 24 h
# Experimental: Female rats in diestrus (the stage at which the epithelial layer in the rat endometrium undergoes degradation) were injected subcutaneously with 6 mg/kg of Compound 68, or with a vehicle. The rats were sacrificed 24 h later and endometrial sections were prepared from the uterine horns of treated and untreated rats and analyzed by histological procedures and by immunohistochemical staining Endometrial slices were stained by hematoxylin-eosin. […] In addition, morphologically, the endometrial tissue resembled the structure of the proliferating stages (proestrus and estrus) (FIG. 9A,B). Activation of telomerase expression in the endometrial cells of treated rats was examined by immunohistochemistry with anti-telomerase antibody (FIG. 9C-F). […] In addition, telomerase activity was measured in nuclear extracts derived from the endometrium of the various treatment groups. […] In some embodiments of the invention, the data support a role for the treatment of endometriosis with the compounds of this invention.
# telomerase [3] = target: telomerase (Homo sapiens, UniProt O14746); assay: Telomerase activity in RPE cells (quantitative telomerase detection kit, real time PCR); type: cell-based; parameters: endogenous in cells; host or cells: human retinal pigmented epithelial (RPE) cells; conditions: FIG. 7B
# Chain of telomerase (Homo sapiens, UniProt O14746) (O14746 whole entry): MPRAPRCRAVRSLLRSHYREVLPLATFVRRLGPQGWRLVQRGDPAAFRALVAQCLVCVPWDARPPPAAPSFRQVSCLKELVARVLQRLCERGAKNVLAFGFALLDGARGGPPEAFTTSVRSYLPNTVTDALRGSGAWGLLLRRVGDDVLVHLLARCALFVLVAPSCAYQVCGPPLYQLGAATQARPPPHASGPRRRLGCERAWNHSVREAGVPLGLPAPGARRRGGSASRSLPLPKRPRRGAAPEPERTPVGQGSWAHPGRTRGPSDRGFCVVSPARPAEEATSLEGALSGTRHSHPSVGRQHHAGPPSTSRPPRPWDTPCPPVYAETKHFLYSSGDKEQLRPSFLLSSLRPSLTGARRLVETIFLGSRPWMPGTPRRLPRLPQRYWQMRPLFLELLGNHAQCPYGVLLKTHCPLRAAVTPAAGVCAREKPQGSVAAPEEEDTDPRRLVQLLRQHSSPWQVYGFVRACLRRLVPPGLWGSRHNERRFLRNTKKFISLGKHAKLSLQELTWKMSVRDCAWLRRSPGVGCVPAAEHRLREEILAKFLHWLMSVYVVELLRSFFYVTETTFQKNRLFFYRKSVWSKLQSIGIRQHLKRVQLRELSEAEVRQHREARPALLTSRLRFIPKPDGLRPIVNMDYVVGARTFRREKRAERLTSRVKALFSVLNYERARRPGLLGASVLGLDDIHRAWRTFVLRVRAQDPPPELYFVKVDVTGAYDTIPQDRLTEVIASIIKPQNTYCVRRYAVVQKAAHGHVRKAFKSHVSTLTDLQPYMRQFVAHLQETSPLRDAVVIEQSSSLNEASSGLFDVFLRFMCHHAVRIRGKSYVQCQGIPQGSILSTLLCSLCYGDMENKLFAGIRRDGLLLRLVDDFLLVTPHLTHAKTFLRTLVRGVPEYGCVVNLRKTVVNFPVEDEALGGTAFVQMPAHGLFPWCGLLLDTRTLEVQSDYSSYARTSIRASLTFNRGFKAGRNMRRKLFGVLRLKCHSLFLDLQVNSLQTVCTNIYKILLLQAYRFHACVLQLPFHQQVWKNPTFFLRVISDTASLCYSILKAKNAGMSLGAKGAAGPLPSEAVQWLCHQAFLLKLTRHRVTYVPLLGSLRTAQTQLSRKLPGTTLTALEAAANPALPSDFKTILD
# From the text: FIG. 7: A. The effect of compounds of the present invention on human retinal pigmented epithelial cells under oxidative stress. B. The effect of compounds on telomerase activity in RPE cells (measured by a quantitative telomerase detection kit-real time PCR).
# Chronic exposure of human retinal pigmented epithelial (RPE) cells to oxidative stress predisposes them to the development of age-related macular degeneration (AMD). Human RPE cells were exposed to oxidative stress by treatment with H2O2 (1 mM) for 24 hours, and H2O2 (0.5 mM) for another 24 hours. The cells were then treated daily for two days with the indicated compounds in the absence of H2O2. Increased cell growth was observed as a consequence of treatment with the compounds (FIG. 7A). Telomerase activity was enhanced in RPE cells treated with compounds 68 and 79 by 30- and 50-fold, respectively (FIG. 7B).
# telomerase protein = assay: Western blot of telomerase protein level in treated glioblastoma cells; type: cell-based, human; conditions: 1 μM single dose
# Experimental: The effect of compounds of the present invention on the level of telomerase protein and of long-term treatment of a single dose of Compound 68 on telomerase was tested by exposing cells for various intervals (3-24 h) to 1 μM of the compound and detecting telomerase protein level by western blot analysis with anti-telomerase antibody. […] A time-dependent increase in telomerase was observed, with activation peaking at […] of treatment, and then gradually decreasing.
smiles,measurement,setting,value
COc1c(I)cc(C(C)(c2cc(I)c(OC)c(I)c2)c2cc(I)c(OC)c(I)c2)cc1I [Compound 73],Lifespan %,C. elegans; table of scaffold drawing 36,−7%
CC(c1ccc(O)cc1)(c1ccc(O)cc1)c1ccc(-c2cccnc2)cc1 [Compound 54],Lifes pan ext. %,C. elegans,15%
CC(c1ccccc1)(c1ccccc1)c1ccccc1 [Compound 49],Lifes pan ext. %,C. elegans,16%
CN1CCN(Cc2cc(C(C)(c3cc(CN4CCN(C)CC4)c(O)c(CN4CCN(C)CC4)c3)c3cc(CN4CCN(C)CC4)c(O)c(CN4CCN(C)CC4)c3)cc(CN3CCN(C)CC3)c2O)CC1 [Compound 78],Lifespan extension (%),C. elegans,36%
same,Lifespan %,C. elegans; table of scaffold drawing 36,36%
same,solubility in ethanol,[1]; ethanol,Soluble
same,solubility in water,[1]; water,very good solubility
CC(c1ccc(O)cc1)(c1ccc(O)cc1)c1ccc(-c2ccncc2)cc1 [Compound 53],Lifes pan ext. %,C. elegans,13%
COc1ccc(P(c2ccc(OC)cc2)c2ccc(OC)cc2)cc1 [Compound 62],Lifespan extension (%),C. elegans,29%
same,Lifespan %,C. elegans; table of scaffold drawing 35,29%
CC(c1ccc(O)c([N+](=O)[O-])c1)(c1ccc(O)c([N+](=O)[O-])c1)c1ccc(O)c([N+](=O)[O-])c1 [Compound 71],Lifespan %,C. elegans; table of scaffold drawing 36,8%
COc1ccc(P(=O)(c2ccc(OC)cc2)c2ccc(OC)cc2)cc1 [Compound 63],Lifespan %,C. elegans; table of scaffold drawing 35,0%
COc1ccc(C(C)(c2ccc(OC)c([N+](=O)[O-])c2)c2ccc(OC)c([N+](=O)[O-])c2)cc1[N+](=O)[O-] [Compound 72],Lifespan %,C. elegans; table of scaffold drawing 36,4%
"Cc1c2oc3c(C)ccc(C(=O)N[C@@H]4C(=O)N[C@H](C(C)C)C(=O)N5CCC[C@H]5C(=O)N(C)CC(=O)N(C)[C@@H](C(C)C)C(=O)O[C@@H]4C)c3nc-2c(C(=O)N[C@@H]2C(=O)N[C@H](C(C)C)C(=O)N3CCC[C@H]3C(=O)N(C)CC(=O)N(C)[C@@H](C(C)C)C(=O)O[C@@H]2C)c(N)c1=O [actinomycin D, reference compound] (I: T[dV]P[Sar][NMeV] / II: T[dV]P[Sar][NMeV]; ester I:1-I:C, II:1-II:C; linker I:N-II:N via Actinocin(9to1))",effect of addition during compound treatment on activation of telomerase expression,telomerase mRNA; added for 3 h during treatment with Compound 68,abolished the activation of telomerase expression
CC(c1ccccc1)(c1ccc(-c2cccc3ccccc23)cc1)c1ccc(C2c3ccccc3Oc3ccccc32)cc1 (centres unmarked) [Compound 33],Lifes pan ext. %,C. elegans,−26%
CC(c1ccc(O)cc1)(c1ccc(O)cc1)c1ccc(O)cc1 [Compound 1],Lifes pan ext. %,C. elegans,30%
Cc1ccc(C(C)(c2ccc(C)cc2)c2ccc(C)cc2)cc1 [Compound 22],Lifes pan ext. %,C. elegans,21%
COc1c(Br)cc(C(C)(c2cc(Br)c(OC)c(Br)c2)c2cc(Br)c(OC)c(Br)c2)cc1Br [Compound 70],Lifespan %,C. elegans; table of scaffold drawing 36,41%
Cc1ccc(P(c2ccc(C)cc2)c2ccc(C)cc2)cc1 [Compound 65],Lifespan %,C. elegans; table of scaffold drawing 35,42%
Cc1ccc(C(C)(c2ccccc2)c2ccccc2)cc1 [Compound 10],Lifes pan ext. %,C. elegans,−1%
O=P(c1ccc(O)cc1)(c1ccc(O)cc1)c1ccc(O)cc1 [Compound 61],Lifespan extension (%),C. elegans,30%
same,Lifespan %,C. elegans; table of scaffold drawing 35,30%
"CC[C@@]1(O)C(=O)OCc2c1cc1n(c2=O)Cc2cc3ccccc3nc2-1 [CPT, camptothecin, reference compound]",embryo development after CPT only,embryos; CPT 5 mg/kg plus vehicle,evidence of abnormal development
CCOC(=O)COc1ccc(C(C)(c2ccc(OCC(=O)OCC)cc2)c2ccc(OCC(=O)OCC)cc2)cc1 [Compound 42],Lifes pan ext. %,C. elegans,−7%
c1ccc(P(c2ccccc2)c2ccccc2)cc1 [Compound 64],Lifespan %,C. elegans; table of scaffold drawing 35,19%
Brc1ccc(N(c2ccc(Br)cc2)c2ccc(Br)cc2)cc1 [Compound 66],Lifespan %,C. elegans; table of scaffold drawing 35,19%
"CC(c1cc(Br)c(O)c(Br)c1)(c1cc(Br)c(O)c(Br)c1)c1cc(Br)c(O)c(Br)c1 [Compound 68, 1,1,1-tris(4-hydroxy-3,5-dibromo-phenyl)-ethane]",staining of telomerase in the endometrial tissue (immunohistochemistry),telomerase [2],significant increase
same,degradation of the endometrial epithelial layer,telomerase [2]; female rats in diestrus,prevented the degradation of the endometrial epithelial layer
same,"level of telomerase full-length and splice variant mRNA, fold of control","telomerase mRNA; single dose of 1 mM, 1-24 h",up to 4.5 fold
same,enhancement of telomerase activity in RPE cells,telomerase [3],30 fold
same,time of peak telomerase activation,telomerase protein,1 to 3 h
same,telomerase protein level,"telomerase protein; 3-24 h, western blot",increased telomerase protein level
same,level of telomerase compared to vehicle-treated cells after 24 h,telomerase protein; 24 h,only slightly higher
same,Lifespan extension (%),C. elegans,13%
same,Lifespan %,C. elegans; table of scaffold drawing 36,13%
same,embryo development after CPT plus compound,embryos; CPT 5 mg/kg then compound 6 mg/kg,developed normally
CC(c1ccc(O)c(Br)c1)(c1ccc(O)c(Br)c1)c1ccc(O)c(Br)c1 [Compound 69],Lifespan %,C. elegans; table of scaffold drawing 36,−5%
Oc1ccc(P(c2ccc(O)cc2)c2ccc(O)cc2)cc1 [Compound 60],Lifespan %,C. elegans; table of scaffold drawing 35,−2%
COc1ccc(C(C)(c2ccc(OC)cc2)c2ccc(OC)cc2)cc1 [Compound 5],Lifes pan ext. %,C. elegans,12%
COc1ccc(C(C)(c2ccc(-c3cccc4ccccc34)cc2)c2ccc(C3c4ccccc4-c4ccccc43)cc2)cc1 (centres unmarked) [Compound 31],Lifes pan ext. %,C. elegans,23%
COc1ccc(C(c2ccc(-c3c[nH]c4ccccc34)cc2)c2ccc(-c3c[nH]c4ccccc34)cc2)cc1 [Compound 50],Lifes pan ext. %,C. elegans,4%
